Several values for one entry are separate records, joined by “and”; a condition that tells them apart may be missing. Equal values may be shown once.
How the values were obtained:
CDK7 = molecular target: T1, CDK7 (Homo sapiens, UniProt P50613); experiment: scanMAX binding assay, CDK7; details: Percent of Control; legend and method: 1 μM; read-out: CDK7 PoC @ 1 µM
T1 construct: purchased Eurofins DiscoverX Corporation
From the text: (§1) As described previously, this commercial assay platform screens against 403 WT human kinases in binding assays and provides PoC values ([73]).

PCTK2 = molecular target: T2, PCTK2 (Homo sapiens, UniProt Q00537); experiment: scanMAX binding assay, PCTK2; details: Percent of Control; legend and method: 1 μM; read-out: PCTK2 PoC @ 1 µM
T2 construct: purchased Eurofins DiscoverX Corporation
From the text: as §1

ERK8 = molecular target: T3, ERK8 (Homo sapiens, UniProt Q8TD08); experiment: scanMAX binding assay, ERK8; details: Percent of Control; legend and method: 1 μM; read-out: ERK8 PoC @ 1 µM
T3 construct: purchased Eurofins DiscoverX Corporation
From the text: as §1

CK1γ2 = molecular target: T4, CK1γ2 (Homo sapiens, UniProt P78368); experiment: scanMAX binding assay, CK1γ2; details: Percent of Control; legend and method: 1 μM; read-out: CK1γ2 PoC @ 1 µM
T4 construct: purchased Eurofins
From the text: as §1

PCTK3 = molecular target: T5, PCTK3 (Homo sapiens, UniProt Q07002); experiment: scanMAX binding assay, PCTK3; details: Percent of Control; legend and method: 1 μM; read-out: PCTK3 PoC @ 1 µM
T5 construct: purchased Eurofins DiscoverX Corporation
From the text: as §1

DYRK1B = molecular target: T6, DYRK1B (Homo sapiens, UniProt Q9Y463); experiment: scanMAX binding assay, DYRK1B; details: Percent of Control; legend and method: 1 μM; read-out: DYRK1B PoC @ 1 µM
T6 construct: purchased Eurofins DiscoverX Corporation
From the text: as §1

CK1γ1 [1] = molecular target: T7, CK1γ1 (Homo sapiens, UniProt Q9HCP0); experiment: Eurofins kinase enzymatic radiometric assay, CK1γ1; assay type: biochemical; details: Km = ATP, 9-pt curve in duplicate
T7 construct: purchased Eurofins
From the text: (§2) Details related to the substrate used, protein constructs, controls, and assay protocol for each kinase assay are included on the Eurofins website: https://www.eurofinsdiscoveryservices.com/.

CAMK1B = molecular target: T8, CAMK1B (Homo sapiens, UniProt Q6P2M8); experiment: scanMAX binding assay, CAMK1B; details: Percent of Control; legend and method: 1 μM; read-out: CAMK1B PoC @ 1 µM
T8 construct: purchased Eurofins DiscoverX Corporation
From the text: as §1

DYRK2 = molecular target: T9, DYRK2 (Homo sapiens, UniProt Q92630); experiment: scanMAX binding assay, DYRK2; details: Percent of Control; legend and method: 1 μM; read-out: DYRK2 PoC @ 1 µM
T9 construct: purchased Eurofins DiscoverX Corporation
From the text: as §1

CK1γ3 [2] = molecular target: T10, CK1γ3 (Homo sapiens, UniProt Q9Y6M4); experiment: Eurofins kinase enzymatic radiometric assay, CK1γ3; assay type: biochemical; details: Km = ATP, 9-pt curve in duplicate
T10 construct: purchased Eurofins
From the text: as §2

[3] = system: BAR reporter (β-catenin-dependent WNT signaling); experiment: BAR luciferase transcriptional reporter assay in HEK293T B/R cells; assay type: cell-based, human; details: for activation of the BAR reporter: HEK293T B/R cells, 10 μM compound for 18 h, compared with dimethyl sulfoxide and FP1
Method: All luciferase reporter assays were performed as previously described ([15], [43]). […] In both loss-of-function and gain-of-function experiments, treatments (WNT3A CM or drug) were added 18 h before harvesting cells. Conditions were plated in triplicate, and Renilla normalized values were averaged across triplicates to yield the data presented and standard error. Each assay was repeated in biological triplicate, unless otherwise stated. Firefly luciferase and the Renilla control were detected using the Promega Dual-Luciferase Reporter Assay System per the manufacturer’s protocol (Promega; catalog no.: E1960). Plates were read on the Victor Nivo plate reader (PerkinElmer).

PCTK1 = molecular target: T11, PCTK1 (Homo sapiens, UniProt Q00536); experiment: scanMAX binding assay, PCTK1; details: Percent of Control; legend and method: 1 μM; read-out: PCTK1 PoC @ 1 µM
T11 construct: purchased Eurofins DiscoverX Corporation
From the text: as §1

CDKL5 = molecular target: T12, CDKL5 (Homo sapiens, UniProt O76039); experiment: scanMAX binding assay, CDKL5; details: Percent of Control; legend and method: 1 μM; read-out: CDKL5 PoC @ 1 µM
T12 construct: purchased Eurofins DiscoverX Corporation
From the text: as §1

PFTK1 = molecular target: T13, PFTK1 (Homo sapiens, UniProt O94921); experiment: scanMAX binding assay, PFTK1; details: Percent of Control; legend and method: 1 μM; read-out: PFTK1 PoC @ 1 µM
T13 construct: purchased Eurofins DiscoverX Corporation
From the text: as §1

GSK3α = molecular target: T14, GSK3α (Homo sapiens, UniProt P49840); experiment: scanMAX binding assay, GSK3α; details: Percent of Control; legend and method: 1 μM; read-out: GSK3α PoC @ 1 µM
T14 construct: purchased Eurofins DiscoverX Corporation
From the text: as §1

ICK = molecular target: T15, ICK (Homo sapiens, UniProt Q9UPZ9); experiment: scanMAX binding assay, ICK; details: Percent of Control; legend and method: 1 μM; read-out: ICK PoC @ 1 µM
T15 construct: purchased Eurofins DiscoverX Corporation
From the text: as §1

CK1γ3 [4] = molecular target: T10, CK1γ3; experiment: scanMAX binding assay, CK1γ3; details: Percent of Control; legend and method: 1 μM; read-out: CK1γ3 PoC @ 1 µM
From the text: as §1

CK1γ1 [5] = molecular target: T7, CK1γ1; experiment: scanMAX binding assay, CK1γ1; details: Percent of Control; legend and method: 1 μM; read-out: CK1γ1 PoC @ 1 µM
From the text: as §1

DCAMKL3 = molecular target: T16, DCAMKL3 (Homo sapiens, UniProt Q9C098); experiment: scanMAX binding assay, DCAMKL3; details: Percent of Control; legend and method: 1 μM; read-out: DCAMKL3 PoC @ 1 µM
T16 construct: purchased Eurofins DiscoverX Corporation
From the text: as §1

GSK3β = molecular target: T17, GSK3β (Homo sapiens, UniProt P49841); experiment: scanMAX binding assay, GSK3β; details: Percent of Control; legend and method: 1 μM; read-out: GSK3β PoC @ 1 µM
T17 construct: purchased Eurofins DiscoverX Corporation
From the text: as §1

GSK3β (NLuc-GSK3β) = molecular target: T18, GSK3β (NLuc-GSK3β) (Homo sapiens, UniProt P49841); experiment: NanoBRET cellular target engagement assay, NLuc-GSK3β in HEK293T cells; assay type: cell-based; details: live HEK293T cells, 0.063 μM tracer K-8; read-out: NL-GSK3β NanoBRET IC50
T18 construct: host or cells: HEK293T
Method: (§3) HEK293T cells (hypotriploid, fetal) were purchased from ATCC. These cells were grown in Dulbecco’s modified Eagle’s medium (Gibco) supplemented with 10% (v/v) fetal bovine serum (Corning). They were incubated in 5% CO2 at 37 °C and passaged every 72 h with trypsin and not allowed to reach confluency. Constructs for NanoBRET measurements of CK1γ2 (NLuc-CK1γ2) and GSK3β (NLuc-GSK3β) were kindly provided by Promega. NanoBRET assays were carried out as described previously ([74]). Preferred NLuc orientations, both N-terminal in this case, are indicated in parentheses after each construct. Assays were carried out in dose–response as described by the manufacturer using 0.5 μM of tracer K-10 for CK1γ2 and 0.063 μM of tracer K-8 for GSK3β. Two biological replicates were executed with two technical replicates to produce the graphs with error bars shown in Figures 6E, 7E, 8, A and B. Tracer titration curves for these kinases that motivated our tracer selection and working concentration can be found on the Promega website.

CK1γ2 (NLuc-CK1γ2) = molecular target: T19, CK1γ2 (NLuc-CK1γ2) (Homo sapiens, UniProt P78368); experiment: NanoBRET cellular target engagement assay, NLuc-CK1γ2 in HEK293T cells; assay type: cell-based; details: live HEK293T cells, 0.5 μM tracer K-10
T19 construct: host or cells: HEK293T
Method: as §3

[6] = system: β-catenin-dependent transcription; details: siRNA screen, BAR firefly luciferase reporter, ref Biechele et al, cited from earlier work; for Average BAR firefly Luciferase (Raw): raw signal per siRNA target

T10 sequence (Q9Y6M4 whole entry): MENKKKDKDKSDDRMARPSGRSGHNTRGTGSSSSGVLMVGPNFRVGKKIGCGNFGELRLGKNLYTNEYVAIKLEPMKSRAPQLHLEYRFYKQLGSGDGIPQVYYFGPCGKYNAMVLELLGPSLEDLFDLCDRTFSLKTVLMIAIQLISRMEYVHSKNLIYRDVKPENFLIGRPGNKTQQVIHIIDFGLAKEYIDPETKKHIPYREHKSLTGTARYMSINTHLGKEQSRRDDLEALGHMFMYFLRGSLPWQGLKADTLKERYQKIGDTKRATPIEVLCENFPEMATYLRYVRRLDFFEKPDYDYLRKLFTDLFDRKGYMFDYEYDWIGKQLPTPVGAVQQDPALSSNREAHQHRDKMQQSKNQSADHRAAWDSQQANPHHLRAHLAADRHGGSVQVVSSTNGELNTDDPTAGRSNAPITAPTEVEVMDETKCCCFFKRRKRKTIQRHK
T7 sequence (Q9HCP0 whole entry): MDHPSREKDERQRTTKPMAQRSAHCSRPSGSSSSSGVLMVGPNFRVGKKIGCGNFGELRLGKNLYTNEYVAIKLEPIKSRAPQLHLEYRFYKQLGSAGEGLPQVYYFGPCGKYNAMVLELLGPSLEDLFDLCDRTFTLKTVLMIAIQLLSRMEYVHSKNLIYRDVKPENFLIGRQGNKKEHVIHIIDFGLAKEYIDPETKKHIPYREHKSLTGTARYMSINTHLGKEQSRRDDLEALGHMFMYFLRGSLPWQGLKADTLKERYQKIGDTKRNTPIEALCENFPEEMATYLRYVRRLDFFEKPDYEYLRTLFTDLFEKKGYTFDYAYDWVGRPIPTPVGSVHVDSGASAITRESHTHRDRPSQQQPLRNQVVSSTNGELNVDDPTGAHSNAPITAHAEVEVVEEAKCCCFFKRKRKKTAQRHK
T6 sequence (Q9Y463 whole entry): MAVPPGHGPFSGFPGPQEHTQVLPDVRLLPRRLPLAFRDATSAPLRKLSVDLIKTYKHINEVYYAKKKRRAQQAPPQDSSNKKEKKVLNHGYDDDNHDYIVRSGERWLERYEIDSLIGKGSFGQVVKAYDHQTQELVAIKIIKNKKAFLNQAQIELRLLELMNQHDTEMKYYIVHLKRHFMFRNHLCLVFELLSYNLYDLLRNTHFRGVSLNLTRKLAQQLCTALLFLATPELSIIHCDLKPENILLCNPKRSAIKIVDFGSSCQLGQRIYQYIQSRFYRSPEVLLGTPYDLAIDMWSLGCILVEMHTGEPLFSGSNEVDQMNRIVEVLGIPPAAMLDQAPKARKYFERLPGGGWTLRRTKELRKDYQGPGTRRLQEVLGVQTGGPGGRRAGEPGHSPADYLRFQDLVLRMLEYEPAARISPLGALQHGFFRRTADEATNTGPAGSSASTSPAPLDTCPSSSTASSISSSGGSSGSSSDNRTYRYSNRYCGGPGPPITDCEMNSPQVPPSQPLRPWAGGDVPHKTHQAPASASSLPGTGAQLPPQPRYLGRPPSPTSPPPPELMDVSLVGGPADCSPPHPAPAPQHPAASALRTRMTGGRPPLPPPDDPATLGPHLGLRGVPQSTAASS
T18 sequence (P49841 whole entry): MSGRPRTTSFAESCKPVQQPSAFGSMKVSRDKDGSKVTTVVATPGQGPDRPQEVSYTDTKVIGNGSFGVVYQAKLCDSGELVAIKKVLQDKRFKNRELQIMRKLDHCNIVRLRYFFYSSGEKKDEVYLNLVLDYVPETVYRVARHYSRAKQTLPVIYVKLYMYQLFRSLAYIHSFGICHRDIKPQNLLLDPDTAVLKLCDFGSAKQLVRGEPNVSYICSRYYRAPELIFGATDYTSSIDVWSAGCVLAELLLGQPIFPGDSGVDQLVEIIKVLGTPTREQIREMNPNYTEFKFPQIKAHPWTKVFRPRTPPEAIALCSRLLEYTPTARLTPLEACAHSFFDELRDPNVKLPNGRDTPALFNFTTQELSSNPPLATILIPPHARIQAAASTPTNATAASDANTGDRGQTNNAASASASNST
T17 sequence (P49841 whole entry): as above
T13 sequence (O94921 whole entry): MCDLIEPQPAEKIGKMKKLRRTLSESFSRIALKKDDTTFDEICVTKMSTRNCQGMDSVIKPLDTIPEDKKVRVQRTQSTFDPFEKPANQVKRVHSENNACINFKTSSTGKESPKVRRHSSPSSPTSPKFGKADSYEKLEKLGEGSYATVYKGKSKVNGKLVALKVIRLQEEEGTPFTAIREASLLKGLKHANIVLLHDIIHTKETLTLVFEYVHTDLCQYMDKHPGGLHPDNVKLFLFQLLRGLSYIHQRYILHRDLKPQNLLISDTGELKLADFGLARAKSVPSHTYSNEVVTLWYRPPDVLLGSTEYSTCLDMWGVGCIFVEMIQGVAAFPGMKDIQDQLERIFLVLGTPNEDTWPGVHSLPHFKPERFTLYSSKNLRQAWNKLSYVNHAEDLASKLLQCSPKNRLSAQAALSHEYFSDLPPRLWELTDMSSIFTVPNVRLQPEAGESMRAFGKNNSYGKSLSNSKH
T16 sequence (Q9C098 whole entry): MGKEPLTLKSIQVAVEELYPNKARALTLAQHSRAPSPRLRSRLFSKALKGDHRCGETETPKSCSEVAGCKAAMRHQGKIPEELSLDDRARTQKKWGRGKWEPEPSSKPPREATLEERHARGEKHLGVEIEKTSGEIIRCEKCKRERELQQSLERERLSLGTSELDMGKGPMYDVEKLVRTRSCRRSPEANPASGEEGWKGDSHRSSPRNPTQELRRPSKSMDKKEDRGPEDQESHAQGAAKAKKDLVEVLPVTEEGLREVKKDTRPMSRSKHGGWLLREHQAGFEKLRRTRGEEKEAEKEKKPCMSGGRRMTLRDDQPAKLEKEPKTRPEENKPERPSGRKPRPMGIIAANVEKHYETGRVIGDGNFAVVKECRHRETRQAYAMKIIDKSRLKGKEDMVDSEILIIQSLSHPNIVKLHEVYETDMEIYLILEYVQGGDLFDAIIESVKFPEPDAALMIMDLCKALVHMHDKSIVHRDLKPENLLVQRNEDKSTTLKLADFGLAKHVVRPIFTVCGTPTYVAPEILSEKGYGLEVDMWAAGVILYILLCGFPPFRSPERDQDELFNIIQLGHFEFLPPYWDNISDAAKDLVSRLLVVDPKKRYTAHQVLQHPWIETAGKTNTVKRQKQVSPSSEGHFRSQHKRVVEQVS
T11 sequence (Q00536 whole entry): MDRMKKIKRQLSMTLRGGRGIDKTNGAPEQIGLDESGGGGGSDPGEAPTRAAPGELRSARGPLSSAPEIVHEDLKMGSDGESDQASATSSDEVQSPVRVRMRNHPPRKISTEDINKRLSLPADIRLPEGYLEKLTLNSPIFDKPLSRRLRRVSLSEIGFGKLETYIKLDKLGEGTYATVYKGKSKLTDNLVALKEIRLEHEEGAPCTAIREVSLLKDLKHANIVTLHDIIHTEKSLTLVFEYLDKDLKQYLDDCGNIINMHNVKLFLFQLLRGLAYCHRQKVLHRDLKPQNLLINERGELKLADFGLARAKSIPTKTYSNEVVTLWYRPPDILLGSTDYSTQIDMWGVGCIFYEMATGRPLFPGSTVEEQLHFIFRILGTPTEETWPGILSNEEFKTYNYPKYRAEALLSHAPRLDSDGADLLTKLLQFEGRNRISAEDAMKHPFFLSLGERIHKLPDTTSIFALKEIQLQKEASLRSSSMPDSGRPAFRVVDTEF
T15 sequence (Q9UPZ9 whole entry): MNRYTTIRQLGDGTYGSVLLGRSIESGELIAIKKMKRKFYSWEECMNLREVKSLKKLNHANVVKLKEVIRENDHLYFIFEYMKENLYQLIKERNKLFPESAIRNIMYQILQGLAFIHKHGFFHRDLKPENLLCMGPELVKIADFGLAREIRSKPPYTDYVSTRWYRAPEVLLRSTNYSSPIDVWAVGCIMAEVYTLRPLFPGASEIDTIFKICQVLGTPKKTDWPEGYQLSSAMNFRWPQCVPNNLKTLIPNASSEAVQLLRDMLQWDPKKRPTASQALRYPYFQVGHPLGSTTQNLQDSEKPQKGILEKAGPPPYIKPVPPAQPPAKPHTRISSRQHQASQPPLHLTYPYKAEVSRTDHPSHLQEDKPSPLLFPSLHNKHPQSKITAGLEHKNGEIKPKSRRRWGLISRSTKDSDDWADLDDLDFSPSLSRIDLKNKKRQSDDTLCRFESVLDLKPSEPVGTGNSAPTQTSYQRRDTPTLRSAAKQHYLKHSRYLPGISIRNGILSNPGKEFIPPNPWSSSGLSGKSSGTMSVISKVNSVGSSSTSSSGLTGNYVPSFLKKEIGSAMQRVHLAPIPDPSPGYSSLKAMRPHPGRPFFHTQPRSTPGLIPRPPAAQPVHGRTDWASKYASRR
T9 sequence (Q92630 whole entry): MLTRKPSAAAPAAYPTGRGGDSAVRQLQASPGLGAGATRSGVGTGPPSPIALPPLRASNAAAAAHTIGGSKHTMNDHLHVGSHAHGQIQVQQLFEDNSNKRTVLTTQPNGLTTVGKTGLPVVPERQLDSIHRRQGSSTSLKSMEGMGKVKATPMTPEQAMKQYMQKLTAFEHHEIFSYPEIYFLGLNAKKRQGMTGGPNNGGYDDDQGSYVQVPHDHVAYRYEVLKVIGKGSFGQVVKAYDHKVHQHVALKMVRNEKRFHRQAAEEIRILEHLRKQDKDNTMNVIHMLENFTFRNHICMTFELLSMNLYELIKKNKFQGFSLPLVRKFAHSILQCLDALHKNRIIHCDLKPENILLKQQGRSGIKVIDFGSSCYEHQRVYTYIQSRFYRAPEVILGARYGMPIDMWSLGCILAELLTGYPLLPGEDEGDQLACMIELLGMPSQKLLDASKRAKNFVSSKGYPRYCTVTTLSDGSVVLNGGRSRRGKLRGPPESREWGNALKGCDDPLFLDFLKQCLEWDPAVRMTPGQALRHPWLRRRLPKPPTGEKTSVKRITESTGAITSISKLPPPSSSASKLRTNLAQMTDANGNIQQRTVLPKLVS

## CN(C)CC(=O)Nc1n[nH]c2ccc(-c3cn(Cc4ccccc4)nn3)cc12 [AKI00000062a]
CDK7
  remaining binding at 1 µM: 1.2%
PCTK2
  remaining binding at 1 µM: 1.4%
ERK8
  remaining binding at 1 µM: 2.5%
CK1γ2
  remaining binding at 1 µM: 1%
PCTK3
  remaining binding at 1 µM: 1.2%
DYRK1B
  remaining binding at 1 µM: 6%
CK1γ1 [1]
  IC50: ≤ 275 nM and 275 nM
CAMK1B
  remaining binding at 1 µM: 0%
DYRK2
  remaining binding at 1 µM: 7.2%
CK1γ3 [2]
  IC50: ≤ 275 nM and 168 nM
[3]
  activation of the BAR reporter: robustly activated
PCTK1
  remaining binding at 1 µM: 0.2%
CDKL5
  remaining binding at 1 µM: 0.2%
PFTK1
  remaining binding at 1 µM: 3.5%
GSK3α
  remaining binding at 1 µM: 0.9%
ICK
  remaining binding at 1 µM: 1.6%
CK1γ3 [4]
  remaining binding at 1 µM: 3.3%
CK1γ1 [5]
  remaining binding at 1 µM: 5.2%
DCAMKL3
  remaining binding at 1 µM: 1.9%
GSK3β
  remaining binding at 1 µM: 0.4%

## Cc1cc(Nc2cc(C3CC3)[nH]n2)nc(Nc2ccc(CC#N)cc2)n1 [APY69, reference compound]
GSK3β (NLuc-GSK3β)
  IC50: 0.23 nM
CK1γ2 (NLuc-CK1γ2)
  NL-CK1γ2 NanoBRET IC50: inactive

## Cc1cc(-c2ccc(CC(=O)Nc3ccc(-c4cccnc4)cc3)cc2)ccn1 [C59, reference compound]
[3]; HEK293T B/R cells transfected 14 h, 10 μM C59 for 18 h
  BAR activation by CK1γ3 overexpression in the absence of WNT3A CM: blocked this activation

## Cc1c[nH]c(-c2cnc(NCCNc3ccc(C#N)cn3)nc2-c2ccc(Cl)cc2Cl)n1 [CHIR99021, reference compound]
[3]
  activation of the BAR reporter: robustly activated

## EPHA2
[6]
  Fold over control siRNA: 0.4994
  Average BAR firefly Luciferase (Raw): 13210

## ERBB2
[6]
  Fold over control siRNA: 3.138
  Average BAR firefly Luciferase (Raw): 83000

— article PMC9157009, “Protein proximity networks and functional evaluation of the casein kinase 1 gamma family reveal unique roles for CK1γ3 in WNT signaling” (The Journal of Biological Chemistry, 2022)
